Results: ChEMBL document CHEMBL5463729, “Data for DCP probe BAY 1753011” (2023)

Key:
Conditions in all cases: Compound concentration 10.0 uM
[1] = molecular target: T1, Alpha-2B adrenergic receptor (Homo sapiens) (UniProt P18089)
T1 sequence (whole entry): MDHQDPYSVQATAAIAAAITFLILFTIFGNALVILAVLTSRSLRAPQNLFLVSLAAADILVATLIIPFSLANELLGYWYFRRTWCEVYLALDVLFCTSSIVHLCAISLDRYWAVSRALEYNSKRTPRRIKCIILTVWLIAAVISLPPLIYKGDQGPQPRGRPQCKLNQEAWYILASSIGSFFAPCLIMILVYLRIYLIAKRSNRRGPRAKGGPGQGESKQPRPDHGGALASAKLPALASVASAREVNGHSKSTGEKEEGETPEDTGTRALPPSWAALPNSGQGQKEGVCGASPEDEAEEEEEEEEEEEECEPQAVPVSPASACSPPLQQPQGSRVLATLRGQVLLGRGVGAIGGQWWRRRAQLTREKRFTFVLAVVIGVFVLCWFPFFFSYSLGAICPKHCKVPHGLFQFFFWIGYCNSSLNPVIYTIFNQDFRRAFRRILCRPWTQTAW

[2] = molecular target: Tyrosine-protein kinase Srms (Homo sapiens) (UniProt Q9H3Y6); experiment: Inhibition of SRMS(h) at 10.0 µM in the Eurofins Kinase panel
[3] = molecular target: D(3) dopamine receptor (Homo sapiens) (UniProt P35462)
[4] = molecular target: Serine-protein kinase ATM (Homo sapiens) (UniProt Q13315); experiment: Inhibition of ATM(h) at 10.0 µM in the Eurofins Kinase panel
[5] = molecular target: Tau-tubulin kinase 1 (Homo sapiens) (UniProt Q5TCY1); experiment: Inhibition of TTBK1(h) at 10.0 µM in the Eurofins Kinase panel
[6] = molecular target: Cyclin-dependent kinase 2/cyclin E1 (Homo sapiens) (UniProt P24864+P24941); experiment: Inhibition of CDK2/cyclinE(h) at 10.0 µM in the Eurofins Kinase panel; assay type: protein-complex assay
[7] = molecular target: Fibroblast growth factor receptor 2 (Homo sapiens) (UniProt P21802); experiment: Inhibition of FGFR2(h) at 10.0 µM in the Eurofins Kinase panel
[8] = molecular target: Dual specificity tyrosine-phosphorylation-regulated kinase 3 (Homo sapiens) (UniProt O43781); experiment: Inhibition of DYRK3(h) at 10.0 µM in the Eurofins Kinase panel
[9] = species on record: Rattus norvegicus
[10] = molecular target: Dual specificity protein kinase CLK2 (Homo sapiens) (UniProt P49760); experiment: Inhibition of CLK2(h) at 10.0 µM in the Eurofins Kinase panel
[11] = molecular target: Kappa-type opioid receptor (Homo sapiens, UniProt P41145)
[12] = molecular target: Serine/threonine-protein kinase TBK1 (Homo sapiens) (UniProt Q9UHD2); experiment: Inhibition of TBK1(h) at 10.0 µM in the Eurofins Kinase panel
[13] = molecular target: Serine/threonine-protein kinase 33 (Homo sapiens) (UniProt Q9BYT3); experiment: Inhibition of STK33(h) at 10.0 µM in the Eurofins Kinase panel
[14] = molecular target: Dual specificity mitogen-activated protein kinase kinase 6 (Homo sapiens) (UniProt P52564); experiment: Inhibition of MKK6(h) at 10.0 µM in the Eurofins Kinase panel
[15] = molecular target: Myotonin-protein kinase (Homo sapiens) (UniProt Q09013); experiment: Inhibition of DMPK(h) at 10.0 µM in the Eurofins Kinase panel
[16] = molecular target: Insulin-like growth factor 1 receptor (Homo sapiens) (UniProt P08069); experiment: Inhibition of IGF-1R(h), activated at 10.0 µM in the Eurofins Kinase panel
[17] = molecular target: Epidermal growth factor receptor (Homo sapiens) (UniProt P00533); experiment: Inhibition of EGFR(h) at 10.0 µM in the Eurofins Kinase panel
[18] = molecular target: T2, Muscarinic acetylcholine receptor M2 (Homo sapiens) (UniProt P08172)
T2 sequence (whole entry): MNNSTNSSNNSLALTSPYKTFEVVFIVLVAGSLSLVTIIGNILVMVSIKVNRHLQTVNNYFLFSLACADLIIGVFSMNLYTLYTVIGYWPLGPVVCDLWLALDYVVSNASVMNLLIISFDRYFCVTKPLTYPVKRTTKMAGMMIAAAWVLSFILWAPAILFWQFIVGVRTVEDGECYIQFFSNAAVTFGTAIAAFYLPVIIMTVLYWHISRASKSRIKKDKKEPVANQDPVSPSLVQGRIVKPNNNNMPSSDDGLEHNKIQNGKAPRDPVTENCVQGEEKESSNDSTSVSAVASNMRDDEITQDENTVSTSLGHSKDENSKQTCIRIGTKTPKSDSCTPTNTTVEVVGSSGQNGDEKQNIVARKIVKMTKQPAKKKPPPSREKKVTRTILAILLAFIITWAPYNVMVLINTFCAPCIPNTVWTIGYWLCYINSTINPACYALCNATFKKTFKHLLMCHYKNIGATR

[19] = molecular target: Activin receptor type-1B (Homo sapiens) (UniProt P36896); experiment: Inhibition of ALK4(h) at 10.0 µM in the Eurofins Kinase panel
[20] = molecular target: Protein kinase C gamma type (Homo sapiens) (UniProt P05129); experiment: Inhibition of PKCgamma(h) at 10.0 µM in the Eurofins Kinase panel
[21] = molecular target: Mitogen-activated protein kinase 1 (Homo sapiens) (UniProt P28482); experiment: Inhibition of MAPK1(h) at 10.0 µM in the Eurofins Kinase panel
[22] = molecular target: Beta-3 adrenergic receptor (Homo sapiens) (UniProt P13945)
[23] = molecular target: Serine/threonine-protein kinase PAK 3 (Homo sapiens) (UniProt O75914); experiment: Inhibition of PAK3(h) at 10.0 µM in the Eurofins Kinase panel
[24] = molecular target: Type-2 angiotensin II receptor (Homo sapiens) (UniProt P50052)
[25] = molecular target: Homeodomain-interacting protein kinase 4 (Homo sapiens) (UniProt Q8NE63); experiment: Inhibition of HIPK4(h) at 10.0 µM in the Eurofins Kinase panel
[26] = molecular target: Serine/threonine-protein kinase 32C (Homo sapiens) (UniProt Q86UX6); experiment: Inhibition of STK32C(h) at 10.0 µM in the Eurofins Kinase panel
[27] = molecular target: Calcium/calmodulin-dependent protein kinase kinase 2 (Homo sapiens) (UniProt Q96RR4); experiment: Inhibition of CaMKK2(h) at 10.0 µM in the Eurofins Kinase panel
[28] = molecular target: 5-hydroxytryptamine receptor 2B (Homo sapiens) (UniProt P41595)

Sequence of Kappa-type opioid receptor (P41145 whole entry): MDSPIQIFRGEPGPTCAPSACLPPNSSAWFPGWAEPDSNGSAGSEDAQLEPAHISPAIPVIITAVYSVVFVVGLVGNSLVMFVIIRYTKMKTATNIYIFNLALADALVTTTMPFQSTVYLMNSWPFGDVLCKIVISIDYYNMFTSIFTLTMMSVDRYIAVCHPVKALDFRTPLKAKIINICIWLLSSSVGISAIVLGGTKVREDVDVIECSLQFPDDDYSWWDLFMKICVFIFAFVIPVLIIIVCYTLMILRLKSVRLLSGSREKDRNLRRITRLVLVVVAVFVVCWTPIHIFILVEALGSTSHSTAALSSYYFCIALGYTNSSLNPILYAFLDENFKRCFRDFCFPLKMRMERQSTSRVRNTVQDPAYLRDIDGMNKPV
Sequence of Beta-3 adrenergic receptor (Homo sapiens) (P13945 whole entry, looked up): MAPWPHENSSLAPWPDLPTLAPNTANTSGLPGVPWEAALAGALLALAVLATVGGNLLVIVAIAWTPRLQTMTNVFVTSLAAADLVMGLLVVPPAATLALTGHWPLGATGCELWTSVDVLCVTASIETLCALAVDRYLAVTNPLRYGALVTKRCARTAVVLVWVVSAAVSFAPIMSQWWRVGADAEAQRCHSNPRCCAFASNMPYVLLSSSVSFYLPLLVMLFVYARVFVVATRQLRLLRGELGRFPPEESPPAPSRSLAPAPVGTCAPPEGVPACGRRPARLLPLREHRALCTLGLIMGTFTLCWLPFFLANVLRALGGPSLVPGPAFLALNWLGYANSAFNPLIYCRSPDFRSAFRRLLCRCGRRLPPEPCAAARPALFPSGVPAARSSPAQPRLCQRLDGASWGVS
Sequence of Homeodomain-interacting protein kinase 4 (Homo sapiens) (Q8NE63 whole entry): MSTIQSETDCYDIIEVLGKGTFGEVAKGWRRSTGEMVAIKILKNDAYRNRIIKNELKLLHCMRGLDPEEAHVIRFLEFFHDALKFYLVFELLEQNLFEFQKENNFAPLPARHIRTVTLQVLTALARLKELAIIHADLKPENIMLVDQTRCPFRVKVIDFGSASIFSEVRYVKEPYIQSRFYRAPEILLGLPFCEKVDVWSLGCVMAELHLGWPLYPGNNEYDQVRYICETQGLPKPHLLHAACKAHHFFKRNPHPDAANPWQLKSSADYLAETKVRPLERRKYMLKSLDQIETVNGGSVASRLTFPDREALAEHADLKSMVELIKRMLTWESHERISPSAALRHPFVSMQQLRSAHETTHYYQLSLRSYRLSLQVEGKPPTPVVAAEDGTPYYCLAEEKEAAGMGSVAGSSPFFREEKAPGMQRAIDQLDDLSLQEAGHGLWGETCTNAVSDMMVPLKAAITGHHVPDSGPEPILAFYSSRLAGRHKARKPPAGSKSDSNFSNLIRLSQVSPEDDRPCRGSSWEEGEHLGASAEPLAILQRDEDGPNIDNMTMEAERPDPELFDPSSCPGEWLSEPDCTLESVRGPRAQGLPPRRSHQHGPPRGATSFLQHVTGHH
Sequence of Myotonin-protein kinase (Homo sapiens) (Q09013 whole entry): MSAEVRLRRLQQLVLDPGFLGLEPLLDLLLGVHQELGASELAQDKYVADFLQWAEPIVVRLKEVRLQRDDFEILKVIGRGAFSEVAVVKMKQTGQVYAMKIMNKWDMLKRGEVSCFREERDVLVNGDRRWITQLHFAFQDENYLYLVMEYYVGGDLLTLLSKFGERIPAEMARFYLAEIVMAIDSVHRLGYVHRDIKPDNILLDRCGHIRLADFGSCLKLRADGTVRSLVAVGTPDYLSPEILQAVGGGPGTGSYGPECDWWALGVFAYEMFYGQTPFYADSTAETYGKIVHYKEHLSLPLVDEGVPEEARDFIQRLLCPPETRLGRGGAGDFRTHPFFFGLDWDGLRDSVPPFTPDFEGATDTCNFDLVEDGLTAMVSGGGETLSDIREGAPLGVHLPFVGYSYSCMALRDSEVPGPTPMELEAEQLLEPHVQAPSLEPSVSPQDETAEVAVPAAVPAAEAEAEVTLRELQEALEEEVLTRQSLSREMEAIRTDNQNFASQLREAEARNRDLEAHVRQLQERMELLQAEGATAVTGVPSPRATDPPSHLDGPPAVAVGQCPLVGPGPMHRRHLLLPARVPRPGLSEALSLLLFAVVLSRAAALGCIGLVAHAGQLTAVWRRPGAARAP
Sequence of Mitogen-activated protein kinase 1 (Homo sapiens) (P28482 whole entry): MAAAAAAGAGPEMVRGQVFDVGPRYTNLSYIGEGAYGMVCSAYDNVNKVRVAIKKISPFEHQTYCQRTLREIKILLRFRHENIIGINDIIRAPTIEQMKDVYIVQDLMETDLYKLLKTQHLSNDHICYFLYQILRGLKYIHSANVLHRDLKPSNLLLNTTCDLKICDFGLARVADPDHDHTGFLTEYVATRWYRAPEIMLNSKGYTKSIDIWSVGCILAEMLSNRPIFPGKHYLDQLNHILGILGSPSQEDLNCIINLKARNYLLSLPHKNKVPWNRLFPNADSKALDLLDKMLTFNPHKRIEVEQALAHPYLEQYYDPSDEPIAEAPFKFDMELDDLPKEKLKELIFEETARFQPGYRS
Sequence of Dual specificity protein kinase CLK2 (Homo sapiens) (P49760 whole entry, looked up): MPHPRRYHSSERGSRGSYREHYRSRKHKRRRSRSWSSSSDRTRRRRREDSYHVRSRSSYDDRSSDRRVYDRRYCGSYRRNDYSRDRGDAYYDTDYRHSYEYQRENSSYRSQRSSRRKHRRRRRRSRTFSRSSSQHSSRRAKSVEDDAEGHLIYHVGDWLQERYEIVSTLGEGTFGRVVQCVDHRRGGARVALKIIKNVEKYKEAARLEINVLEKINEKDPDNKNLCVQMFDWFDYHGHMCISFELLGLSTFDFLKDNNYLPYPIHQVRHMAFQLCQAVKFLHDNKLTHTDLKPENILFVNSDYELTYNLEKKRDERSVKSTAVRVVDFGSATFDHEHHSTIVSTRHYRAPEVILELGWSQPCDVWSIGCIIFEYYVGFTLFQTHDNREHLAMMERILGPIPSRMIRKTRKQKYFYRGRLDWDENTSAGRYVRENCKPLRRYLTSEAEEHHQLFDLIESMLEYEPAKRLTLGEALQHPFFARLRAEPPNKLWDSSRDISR
Sequence of Fibroblast growth factor receptor 2 (Homo sapiens) (P21802 22-821 limits assumed): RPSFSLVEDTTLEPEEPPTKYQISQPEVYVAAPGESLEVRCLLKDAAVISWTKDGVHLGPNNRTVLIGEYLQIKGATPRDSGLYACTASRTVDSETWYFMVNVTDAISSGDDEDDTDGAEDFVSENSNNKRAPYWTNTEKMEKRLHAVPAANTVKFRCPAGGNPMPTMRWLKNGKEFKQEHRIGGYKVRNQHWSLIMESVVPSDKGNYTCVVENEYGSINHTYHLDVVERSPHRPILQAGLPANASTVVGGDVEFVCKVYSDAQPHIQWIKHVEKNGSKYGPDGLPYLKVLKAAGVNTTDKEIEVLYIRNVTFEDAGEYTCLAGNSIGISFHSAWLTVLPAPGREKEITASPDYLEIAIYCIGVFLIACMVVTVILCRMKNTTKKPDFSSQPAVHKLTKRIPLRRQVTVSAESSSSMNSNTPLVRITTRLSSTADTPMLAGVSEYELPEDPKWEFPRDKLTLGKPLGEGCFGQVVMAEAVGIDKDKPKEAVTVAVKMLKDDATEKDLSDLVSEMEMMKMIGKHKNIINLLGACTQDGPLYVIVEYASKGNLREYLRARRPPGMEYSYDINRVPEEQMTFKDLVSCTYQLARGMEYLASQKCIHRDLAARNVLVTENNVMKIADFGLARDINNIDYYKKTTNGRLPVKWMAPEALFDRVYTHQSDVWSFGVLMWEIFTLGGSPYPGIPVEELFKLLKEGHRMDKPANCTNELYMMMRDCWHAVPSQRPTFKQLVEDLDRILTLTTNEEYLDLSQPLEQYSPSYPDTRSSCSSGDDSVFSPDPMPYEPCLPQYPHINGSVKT
Sequence of Serine/threonine-protein kinase TBK1 (Homo sapiens) (Q9UHD2 whole entry): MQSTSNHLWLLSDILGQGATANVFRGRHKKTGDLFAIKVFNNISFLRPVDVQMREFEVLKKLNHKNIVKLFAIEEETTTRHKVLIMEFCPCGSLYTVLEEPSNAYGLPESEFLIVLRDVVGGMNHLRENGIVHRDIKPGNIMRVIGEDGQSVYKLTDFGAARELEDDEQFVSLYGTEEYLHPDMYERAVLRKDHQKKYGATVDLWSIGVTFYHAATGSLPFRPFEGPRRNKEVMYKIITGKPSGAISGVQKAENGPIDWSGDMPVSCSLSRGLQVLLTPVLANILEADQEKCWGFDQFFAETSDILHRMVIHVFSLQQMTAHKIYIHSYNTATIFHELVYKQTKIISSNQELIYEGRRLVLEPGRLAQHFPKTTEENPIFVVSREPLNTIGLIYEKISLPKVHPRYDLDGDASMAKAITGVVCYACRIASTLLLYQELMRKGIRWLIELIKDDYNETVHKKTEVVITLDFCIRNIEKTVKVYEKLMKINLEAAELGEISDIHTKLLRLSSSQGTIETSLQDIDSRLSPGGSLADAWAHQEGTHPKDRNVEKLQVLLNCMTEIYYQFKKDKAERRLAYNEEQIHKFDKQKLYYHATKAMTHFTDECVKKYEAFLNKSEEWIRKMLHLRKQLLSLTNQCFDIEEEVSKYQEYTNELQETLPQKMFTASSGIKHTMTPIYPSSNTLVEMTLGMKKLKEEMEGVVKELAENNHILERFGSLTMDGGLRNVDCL
Sequence of Serine/threonine-protein kinase PAK 3 (Homo sapiens) (O75914 whole entry, looked up): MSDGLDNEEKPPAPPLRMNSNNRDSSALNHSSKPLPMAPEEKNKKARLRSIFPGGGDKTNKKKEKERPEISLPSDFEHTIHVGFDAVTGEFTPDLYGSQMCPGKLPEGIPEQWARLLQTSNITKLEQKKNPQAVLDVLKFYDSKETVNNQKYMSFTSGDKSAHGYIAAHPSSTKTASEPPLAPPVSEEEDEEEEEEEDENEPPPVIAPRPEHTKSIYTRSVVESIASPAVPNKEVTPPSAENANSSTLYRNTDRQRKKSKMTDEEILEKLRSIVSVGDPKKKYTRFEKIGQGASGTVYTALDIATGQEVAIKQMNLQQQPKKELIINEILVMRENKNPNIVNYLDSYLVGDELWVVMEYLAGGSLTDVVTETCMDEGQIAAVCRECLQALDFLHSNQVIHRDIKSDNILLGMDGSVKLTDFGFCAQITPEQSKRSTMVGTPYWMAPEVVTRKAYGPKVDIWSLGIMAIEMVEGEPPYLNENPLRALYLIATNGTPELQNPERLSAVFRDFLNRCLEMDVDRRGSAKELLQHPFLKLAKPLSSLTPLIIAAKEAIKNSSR

Row | Compound | inhibition [1] | inhibition [2] | inhibition [3] | inhibition [4] | inhibition [5] | inhibition [6] | inhibition [7] | inhibition [8] | inhibition [9] | inhibition [10] | inhibition [11] | inhibition [12] | inhibition [13] | inhibition [14] | inhibition [15] | inhibition [16] | inhibition [17] | inhibition [18] | inhibition [19] | inhibition [20] | further results
1 | O=c1n(Cc2cncn2-c2cccc(Cl)c2)nc(-c2ccc(Cl)cc2)n1C[C@H](O)C(F)(F)F | 0.1% | 4.78% | -8% | -1.92% | -6.92% | 3.43% | -6.43% | -6.33% | 9% | -2.19% | 3.83% | 7.19% | 6.15% | 5.77% | 4.48% | -4.33% | -4.73% | -9.34% | 3.01% | -1.26% | inhibition [21]: -0.83%; inhibition [22]: -0.32%; inhibition [23]: 7.29%; inhibition [24]: -3%; inhibition [25]: 4.55%; inhibition [26]: -2.95%; inhibition [27]: -6.67%; inhibition [28]: 12%
2 | C[C@H](O)c1nc(Cn2nc(-c3ccc(Cl)cc3)n(C[C@H](O)C(F)(F)F)c2=O)nn1-c1cccc(Cl)c1 [PECAVAPTAN] | 16.1% | 7.11% | 26% | 1.99% | -7.82% | -0.04% | -7.72% | -1.79% | 8% | -2.64% | 62.4% | -2.96% | 6.36% | 7.34% | 12.7% | -6.92% | -5.82% | 4.65% | 4.03% | 3.24% | inhibition [21]: 7.33%; inhibition [22]: -1.97%; inhibition [23]: 1.73%; inhibition [24]: 4%; inhibition [25]: -3.59%; inhibition [26]: 1.11%; inhibition [27]: -6.9%; inhibition [28]: 52%
